Where a name gives a salt, the structure may show the parent alone.

`CC(=N)Nc1ccc2oc(-c3ccc4c(c3)OCO4)c(O)c(=O)c2c1` (as salt: hydrochloride) [Example 16, 2-(benzo[1,3]dioxol-5-yl)-3-hydroxy-6-[(1-iminoethyl)amino]-4H-1-benzopyran-4-one hydrochloride]: the melting point lay within 262.3 to 262.9 °C.
Then `COCCC(=N)Nc1ccc2oc(-c3ccc4c(c3)OCO4)c(O)c(=O)c2c1` (as salt: hydrochloride) [Example 19, 2-(benzo[1,3]dioxol-5-yl)-3-hydroxy-6-[(1-iminopropyl-3-methoxy)amino]-4H-1-benzopyran-4-one hydrochloride], with 188.5 to 190 °C; and `CC(=N)Nc1ccc2oc(-c3ccc(O)nc3)c(O)c(=O)c2c1` (as salt: hydrochloride) [Example 21, 2-(6-hydroxypyridin-3-yl)-3-hydroxy-6-[(1-iminoethyl)amino]-4H-1-benzopyran-4-one hydrochloride], with 284.5 to 286 °C.

(Values after patent US8372866B2, “2-aryl and 2-heteroaryl 4H-1-benzopyran-4-one-6-amidino derivatives, new pharmacological agents for the treatment of arthritis, cancer and related pain” (Rottapharm S.p.A., priority 2008, dated 2013).)
